Reference: ChEMBL document CHEMBL1201862, “PubChem BioAssay data set” (2004)
The source made the active and inactive calls.

Columns and labels:
[1] = molecular target: T1, Sentrin-specific protease 6 (Homo sapiens, UniProt Q9GZR1); assay type: functional;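 further: Luminescence-based dose-response confirmatory assay of SENP6 inhibition, following up an ultra-high-throughput screen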
T1 sequence (Q9GZR1 whole entry): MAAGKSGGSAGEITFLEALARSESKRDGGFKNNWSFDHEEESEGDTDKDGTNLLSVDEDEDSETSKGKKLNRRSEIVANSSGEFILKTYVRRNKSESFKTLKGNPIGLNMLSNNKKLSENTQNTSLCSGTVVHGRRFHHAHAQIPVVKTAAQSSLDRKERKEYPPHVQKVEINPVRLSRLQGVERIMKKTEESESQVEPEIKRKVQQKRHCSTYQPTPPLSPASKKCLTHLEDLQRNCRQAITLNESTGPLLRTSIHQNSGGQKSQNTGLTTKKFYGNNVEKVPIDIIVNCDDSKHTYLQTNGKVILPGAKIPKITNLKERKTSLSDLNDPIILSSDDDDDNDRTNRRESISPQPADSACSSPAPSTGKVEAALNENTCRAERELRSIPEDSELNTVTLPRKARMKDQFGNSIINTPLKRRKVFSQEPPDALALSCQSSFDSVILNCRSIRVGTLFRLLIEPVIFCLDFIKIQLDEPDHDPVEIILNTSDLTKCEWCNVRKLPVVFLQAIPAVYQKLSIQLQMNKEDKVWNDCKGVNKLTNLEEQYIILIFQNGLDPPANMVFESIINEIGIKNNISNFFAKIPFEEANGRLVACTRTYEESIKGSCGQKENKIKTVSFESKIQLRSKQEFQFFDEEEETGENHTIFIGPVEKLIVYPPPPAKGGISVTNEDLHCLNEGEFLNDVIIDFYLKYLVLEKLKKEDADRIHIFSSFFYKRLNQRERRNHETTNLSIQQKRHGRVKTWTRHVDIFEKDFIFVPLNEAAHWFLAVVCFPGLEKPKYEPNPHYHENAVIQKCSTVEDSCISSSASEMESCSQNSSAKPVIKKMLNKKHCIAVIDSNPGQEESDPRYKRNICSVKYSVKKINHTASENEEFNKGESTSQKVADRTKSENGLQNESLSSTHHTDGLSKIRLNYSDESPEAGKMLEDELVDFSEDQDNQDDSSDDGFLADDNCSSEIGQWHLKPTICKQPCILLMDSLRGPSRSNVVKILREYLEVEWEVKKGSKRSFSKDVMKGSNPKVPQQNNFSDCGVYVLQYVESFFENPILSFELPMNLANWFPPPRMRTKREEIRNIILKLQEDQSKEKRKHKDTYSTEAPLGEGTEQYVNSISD

[2] = Luminescence-based cell-based high throughput dose response assay to identify activators of the DAF-12 from the parasite S. stercoralis (ssDAF-12).; assay type: functional
[3] = molecular target: T2, Oxysterols receptor LXR-beta (Homo sapiens, UniProt P55055); experiment: LXR agonists, Gal4 luciferase reporter, dose response, counter-screen for ssDAF-12 agonist project, cell-based, luminescence, HEK293, S. stercoralis campaign (AID 720737); assay type: functional; conditions: read-out: IC50 (the source's name)
T2 sequence (P55055 whole entry): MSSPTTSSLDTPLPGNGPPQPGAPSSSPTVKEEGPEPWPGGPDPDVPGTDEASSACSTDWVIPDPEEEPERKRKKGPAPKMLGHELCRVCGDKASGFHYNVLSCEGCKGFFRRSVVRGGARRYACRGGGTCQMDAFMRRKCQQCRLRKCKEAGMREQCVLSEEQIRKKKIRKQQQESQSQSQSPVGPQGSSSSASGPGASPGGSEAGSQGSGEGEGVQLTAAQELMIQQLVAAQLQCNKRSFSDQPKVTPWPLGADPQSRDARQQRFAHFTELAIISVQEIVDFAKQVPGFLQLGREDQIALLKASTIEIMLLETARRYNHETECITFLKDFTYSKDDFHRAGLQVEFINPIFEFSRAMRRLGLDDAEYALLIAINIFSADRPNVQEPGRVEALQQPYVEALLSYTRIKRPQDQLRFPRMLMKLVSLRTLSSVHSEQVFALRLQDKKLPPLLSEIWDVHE

[4] = molecular target: T3, Sentrin-specific protease 8 (Homo sapiens, UniProt Q96LD8); assay type: functional;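 further: luminescence read-out of SENP8 inhibition, dose-response confirmation following an ultra-high-throughput screen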
T3 sequence (Q96LD8 whole entry): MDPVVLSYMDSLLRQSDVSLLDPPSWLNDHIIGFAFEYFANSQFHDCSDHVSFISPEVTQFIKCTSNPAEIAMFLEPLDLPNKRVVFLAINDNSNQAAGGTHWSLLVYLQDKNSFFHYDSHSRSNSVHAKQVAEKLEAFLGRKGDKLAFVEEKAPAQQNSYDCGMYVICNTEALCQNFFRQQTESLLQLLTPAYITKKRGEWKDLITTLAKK

Caspase-3 = molecular target: T4, Caspase-3 (Homo sapiens, UniProt P42574); assay type: functional;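 further: Dose-response selectivity test against caspase-3 for candidate inhibitors of sentrin-specific proteases (SENPs)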
T4 sequence (P42574 whole entry): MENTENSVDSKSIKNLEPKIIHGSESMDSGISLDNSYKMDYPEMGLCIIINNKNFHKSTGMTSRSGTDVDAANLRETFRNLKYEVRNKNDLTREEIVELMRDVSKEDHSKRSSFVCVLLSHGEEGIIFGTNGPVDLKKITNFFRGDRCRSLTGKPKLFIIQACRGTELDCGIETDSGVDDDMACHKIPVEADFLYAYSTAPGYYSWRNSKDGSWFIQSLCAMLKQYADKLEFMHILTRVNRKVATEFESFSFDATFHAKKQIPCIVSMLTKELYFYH

[5] = molecular target: T2, Oxysterols receptor LXR-beta; assay type: functional, cell-based
[6] = molecular target: T5, Sentrin-specific protease 7 (Homo sapiens, UniProt Q9BQF6); assay type: functional;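 further: Luminescence-based dose-response confirmation of ultra-high-throughput screening hits, measuring inhibition of SENP7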
T5 sequence (Q9BQF6 whole entry): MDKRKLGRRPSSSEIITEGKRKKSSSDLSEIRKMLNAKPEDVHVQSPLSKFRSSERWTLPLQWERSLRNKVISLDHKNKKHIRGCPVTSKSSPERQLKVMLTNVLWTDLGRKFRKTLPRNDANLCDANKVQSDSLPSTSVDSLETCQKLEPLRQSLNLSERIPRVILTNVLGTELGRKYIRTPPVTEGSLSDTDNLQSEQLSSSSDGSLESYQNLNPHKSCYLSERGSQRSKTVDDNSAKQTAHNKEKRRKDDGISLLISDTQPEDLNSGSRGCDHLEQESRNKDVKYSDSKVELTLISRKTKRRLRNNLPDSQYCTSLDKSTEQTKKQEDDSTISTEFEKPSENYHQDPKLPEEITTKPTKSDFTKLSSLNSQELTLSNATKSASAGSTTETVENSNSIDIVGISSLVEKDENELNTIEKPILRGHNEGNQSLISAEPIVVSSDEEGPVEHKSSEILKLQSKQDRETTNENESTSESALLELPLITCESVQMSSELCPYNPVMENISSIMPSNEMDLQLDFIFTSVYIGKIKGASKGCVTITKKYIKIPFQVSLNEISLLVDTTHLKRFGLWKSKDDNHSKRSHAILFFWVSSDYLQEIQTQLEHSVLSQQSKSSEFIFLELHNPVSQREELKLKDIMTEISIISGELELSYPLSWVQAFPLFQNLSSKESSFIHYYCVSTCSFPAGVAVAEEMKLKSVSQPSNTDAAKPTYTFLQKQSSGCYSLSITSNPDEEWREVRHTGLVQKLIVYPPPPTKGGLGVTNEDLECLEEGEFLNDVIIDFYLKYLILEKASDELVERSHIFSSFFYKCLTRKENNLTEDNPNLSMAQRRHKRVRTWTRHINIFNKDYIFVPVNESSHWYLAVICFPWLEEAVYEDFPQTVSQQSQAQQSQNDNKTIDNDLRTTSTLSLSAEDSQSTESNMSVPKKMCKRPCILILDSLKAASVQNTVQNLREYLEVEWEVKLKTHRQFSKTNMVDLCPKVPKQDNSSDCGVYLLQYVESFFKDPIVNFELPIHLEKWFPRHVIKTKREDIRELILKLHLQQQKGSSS

[7] = molecular target: RNA-editing ligase 1, mitochondrial (Trypanosoma brucei brucei, UniProt P86926); experiment: TbREL1 ligase inhibitors, dose response, biochemical, fluorescence, Trypanosoma brucei (AID 1117295); assay type: functional
[8] = inhibitors of firefly luciferase expression or activity, dose response, H4 neuroglioma cells, luminescence (AID 1990); assay type: functional, cell-based
[9] = inhibitors of SNCA 5'UTR-driven reporter translation, confirmation, H4 neuroglioma cells, luminescence (AID 1988); assay type: functional, cell-based
[10] = Luminescence Cell-Based Dose Response HTS to Identify Inhibitors of 5'UTR Stem-Loop Driven Prion Protein mRNA Translation in H4 Neuroglioblastoma Cells. [Related pubchem assays: 1827 (Project Summary), 1813 (Primary HTS)]; assay type: functional
[11] = molecular target: T6, Mitochondrial peptide methionine sulfoxide reductase (Bos taurus, UniProt P54149); experiment: Absorbance-based biochemical high throughput dose response assay for activators of Methionine sulfoxide reductase A (MsrA).; assay type: functional
T6 sequence (P54149 whole entry): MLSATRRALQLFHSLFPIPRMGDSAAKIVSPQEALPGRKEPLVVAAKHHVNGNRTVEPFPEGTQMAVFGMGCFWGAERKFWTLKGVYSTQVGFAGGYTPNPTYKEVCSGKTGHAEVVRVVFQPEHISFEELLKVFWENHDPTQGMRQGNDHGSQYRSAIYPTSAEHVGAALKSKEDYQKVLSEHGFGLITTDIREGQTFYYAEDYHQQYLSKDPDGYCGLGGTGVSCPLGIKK

Caspase-8 = Caspase-8 (Homo sapiens, UniProt Q14790); experiment: caspase-8 inhibition counter-screen, dose response, selectivity assay for caspase-6 inhibitor project, biochemical, Z-IETD-R110 fluorescence, cherry-picked samples (AID 743294)
Chain of Caspase-8 (Q14790 217-374 limits assumed): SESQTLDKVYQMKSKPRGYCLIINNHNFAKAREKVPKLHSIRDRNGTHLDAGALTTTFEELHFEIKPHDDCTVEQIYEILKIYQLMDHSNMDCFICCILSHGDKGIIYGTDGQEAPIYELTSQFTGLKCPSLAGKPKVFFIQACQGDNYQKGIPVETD
Chain of Caspase-8 (Q14790 385-479 limits assumed): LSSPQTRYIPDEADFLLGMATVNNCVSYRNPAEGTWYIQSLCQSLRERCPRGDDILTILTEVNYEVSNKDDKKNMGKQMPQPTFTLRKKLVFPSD

Caspase-9 = Caspase-9 (Homo sapiens, UniProt P55211); experiment: caspase-9 enzyme inhibition, dose response, selectivity assay for caspase-6 inhibitor project, biochemical, fluorescence, plate reader, cherry-picked samples (AID 743293)
Chain of Caspase-9 (P55211 1-315 limits assumed): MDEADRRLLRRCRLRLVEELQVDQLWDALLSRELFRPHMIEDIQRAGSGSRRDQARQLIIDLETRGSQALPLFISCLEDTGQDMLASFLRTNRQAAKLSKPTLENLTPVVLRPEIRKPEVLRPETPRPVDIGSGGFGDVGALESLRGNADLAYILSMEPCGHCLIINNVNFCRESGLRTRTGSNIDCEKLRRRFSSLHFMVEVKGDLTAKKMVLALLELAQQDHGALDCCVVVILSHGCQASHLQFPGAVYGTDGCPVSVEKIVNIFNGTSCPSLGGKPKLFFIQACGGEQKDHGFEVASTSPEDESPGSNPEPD
Chain of Caspase-9 (P55211 331-416 limits assumed): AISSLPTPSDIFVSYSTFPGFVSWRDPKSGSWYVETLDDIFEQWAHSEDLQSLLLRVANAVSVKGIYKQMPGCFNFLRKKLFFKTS

[12] = molecular target: Tyrosyl-DNA phosphodiesterase 2 (Homo sapiens, UniProt O95551); experiment: human TDP2 enzyme inhibitors, dose response, biochemical, epi absorbance, IC50 (AID 743297)
Chain of Tyrosyl-DNA phosphodiesterase 2 (O95551 whole entry): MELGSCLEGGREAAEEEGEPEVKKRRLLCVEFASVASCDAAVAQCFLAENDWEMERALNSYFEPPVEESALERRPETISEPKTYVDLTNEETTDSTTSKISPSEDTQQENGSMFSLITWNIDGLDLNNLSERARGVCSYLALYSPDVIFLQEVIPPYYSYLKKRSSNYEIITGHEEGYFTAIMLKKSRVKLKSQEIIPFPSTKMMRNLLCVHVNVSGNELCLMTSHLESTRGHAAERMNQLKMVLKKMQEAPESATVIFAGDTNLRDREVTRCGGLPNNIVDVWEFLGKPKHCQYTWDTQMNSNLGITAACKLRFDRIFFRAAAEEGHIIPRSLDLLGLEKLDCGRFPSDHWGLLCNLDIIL

Caspase-6 = molecular target: T7, Caspase-6 (Homo sapiens, UniProt P55212); experiment: human caspase-6 inhibitors, dose response, biochemical, VEID-R110 fluorescence, cherry-pick (AID 720632)
T7 sequence (P55212 whole entry): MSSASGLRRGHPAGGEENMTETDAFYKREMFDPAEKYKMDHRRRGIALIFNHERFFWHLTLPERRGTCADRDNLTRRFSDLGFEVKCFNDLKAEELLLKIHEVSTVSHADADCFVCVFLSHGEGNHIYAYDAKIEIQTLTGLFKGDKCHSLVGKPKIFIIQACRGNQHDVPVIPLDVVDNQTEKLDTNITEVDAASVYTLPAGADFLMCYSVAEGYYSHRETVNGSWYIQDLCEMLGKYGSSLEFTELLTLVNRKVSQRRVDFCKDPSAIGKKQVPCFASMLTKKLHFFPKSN

[13] = HEK293T cell cytotoxicity, dose response, cytotoxicity control, CellTiter-Glo luminescence, dry powder, set 2 (AID 720595); assay type: functional, cell-based; conditions: HEK293
Nonstructural protein 1 = Nonstructural protein 1 (Influenza A virus, UniProt Q194T2); assay type: functional, Influenza A virus (A/California/07/2009(H1N1))
Chain of Nonstructural protein 1 (Q194T2 whole entry): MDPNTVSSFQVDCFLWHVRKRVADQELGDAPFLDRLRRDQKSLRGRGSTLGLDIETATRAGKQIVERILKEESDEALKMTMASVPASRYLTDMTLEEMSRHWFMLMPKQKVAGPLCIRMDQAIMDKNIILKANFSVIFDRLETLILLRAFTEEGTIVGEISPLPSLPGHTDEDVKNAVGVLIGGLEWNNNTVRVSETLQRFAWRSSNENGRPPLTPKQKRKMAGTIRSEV

[14] = molecular target: T8, Muscarinic acetylcholine receptor M5 (Homo sapiens, UniProt P08912); experiment: M5 positive allosteric modulator fold shift, mechanism study, cell-based, calcium fluorescence (AID 651776); assay type: functional
T8 sequence (P08912 whole entry): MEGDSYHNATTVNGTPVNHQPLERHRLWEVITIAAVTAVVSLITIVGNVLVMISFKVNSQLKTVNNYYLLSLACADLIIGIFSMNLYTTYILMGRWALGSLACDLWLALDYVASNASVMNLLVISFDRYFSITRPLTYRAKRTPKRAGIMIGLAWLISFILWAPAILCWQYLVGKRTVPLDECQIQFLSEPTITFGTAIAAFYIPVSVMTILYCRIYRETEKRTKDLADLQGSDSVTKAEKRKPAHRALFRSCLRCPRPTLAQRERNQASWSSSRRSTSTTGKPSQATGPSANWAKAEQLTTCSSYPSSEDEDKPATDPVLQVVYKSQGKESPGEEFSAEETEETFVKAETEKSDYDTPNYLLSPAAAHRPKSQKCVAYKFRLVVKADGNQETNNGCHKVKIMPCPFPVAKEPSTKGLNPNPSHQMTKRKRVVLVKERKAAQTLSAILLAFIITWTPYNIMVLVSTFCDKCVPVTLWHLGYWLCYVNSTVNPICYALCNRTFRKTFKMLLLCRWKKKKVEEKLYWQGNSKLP

[15] = molecular target: T8, Muscarinic acetylcholine receptor M5; experiment: M5 receptor positive allosteric modulators, dose response, cell-based, concentration-response curve (AID 651878); assay type: functional
[16] = molecular target: Muscarinic acetylcholine receptor M5 (Rattus norvegicus, UniProt P08911); experiment: Discovery of Selective Novel Positive Allosteric Modulators (PAM) of the Muscarinic Receptor (M5) in CHO cells expressing Rattus Norvegicus M5 receptor.; assay type: functional, cell-based
[17] = P. falciparum Dd2 growth inhibitors, dose response, SYBR Green, dry powder samples, set 9 (AID 1159568); assay type: functional, cell-based
[18] = molecular target: Metabotropic glutamate receptor 7 (Homo sapiens, UniProt Q14831); experiment: mGlu7 positive allosteric modulators, dose response, cell-based, calcium mobilization, Galpha15 (AID 743384); assay type: functional
Chain of Metabotropic glutamate receptor 7 (Q14831 whole entry): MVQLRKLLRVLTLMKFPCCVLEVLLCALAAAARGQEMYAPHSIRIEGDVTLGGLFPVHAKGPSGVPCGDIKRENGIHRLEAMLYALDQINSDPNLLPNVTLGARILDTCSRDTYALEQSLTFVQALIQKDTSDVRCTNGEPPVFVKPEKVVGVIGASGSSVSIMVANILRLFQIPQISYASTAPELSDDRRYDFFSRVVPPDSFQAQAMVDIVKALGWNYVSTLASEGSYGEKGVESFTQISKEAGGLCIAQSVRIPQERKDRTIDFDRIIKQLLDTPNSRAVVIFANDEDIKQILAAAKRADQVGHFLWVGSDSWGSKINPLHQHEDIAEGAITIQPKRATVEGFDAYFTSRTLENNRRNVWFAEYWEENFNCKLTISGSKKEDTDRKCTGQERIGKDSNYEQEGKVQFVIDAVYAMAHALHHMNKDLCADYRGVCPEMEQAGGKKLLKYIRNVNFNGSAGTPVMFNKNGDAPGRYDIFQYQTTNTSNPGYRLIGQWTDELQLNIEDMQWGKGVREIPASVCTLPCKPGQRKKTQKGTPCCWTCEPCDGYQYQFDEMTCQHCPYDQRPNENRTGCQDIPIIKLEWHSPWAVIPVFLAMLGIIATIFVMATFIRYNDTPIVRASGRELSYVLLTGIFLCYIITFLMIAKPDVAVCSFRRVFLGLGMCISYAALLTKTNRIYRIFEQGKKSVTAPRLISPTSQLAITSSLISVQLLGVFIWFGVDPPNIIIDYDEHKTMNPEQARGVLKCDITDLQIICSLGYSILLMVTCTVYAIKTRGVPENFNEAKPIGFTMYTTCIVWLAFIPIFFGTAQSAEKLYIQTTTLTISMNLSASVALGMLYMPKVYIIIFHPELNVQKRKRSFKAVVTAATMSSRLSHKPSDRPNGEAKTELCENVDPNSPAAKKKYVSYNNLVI

Phospholipase D2 = Phospholipase D2 (Homo sapiens, UniProt O14939); experiment: PLD2 Cellular Concentration Response Study.; assay type: functional
Chain of Phospholipase D2 (O14939 whole entry): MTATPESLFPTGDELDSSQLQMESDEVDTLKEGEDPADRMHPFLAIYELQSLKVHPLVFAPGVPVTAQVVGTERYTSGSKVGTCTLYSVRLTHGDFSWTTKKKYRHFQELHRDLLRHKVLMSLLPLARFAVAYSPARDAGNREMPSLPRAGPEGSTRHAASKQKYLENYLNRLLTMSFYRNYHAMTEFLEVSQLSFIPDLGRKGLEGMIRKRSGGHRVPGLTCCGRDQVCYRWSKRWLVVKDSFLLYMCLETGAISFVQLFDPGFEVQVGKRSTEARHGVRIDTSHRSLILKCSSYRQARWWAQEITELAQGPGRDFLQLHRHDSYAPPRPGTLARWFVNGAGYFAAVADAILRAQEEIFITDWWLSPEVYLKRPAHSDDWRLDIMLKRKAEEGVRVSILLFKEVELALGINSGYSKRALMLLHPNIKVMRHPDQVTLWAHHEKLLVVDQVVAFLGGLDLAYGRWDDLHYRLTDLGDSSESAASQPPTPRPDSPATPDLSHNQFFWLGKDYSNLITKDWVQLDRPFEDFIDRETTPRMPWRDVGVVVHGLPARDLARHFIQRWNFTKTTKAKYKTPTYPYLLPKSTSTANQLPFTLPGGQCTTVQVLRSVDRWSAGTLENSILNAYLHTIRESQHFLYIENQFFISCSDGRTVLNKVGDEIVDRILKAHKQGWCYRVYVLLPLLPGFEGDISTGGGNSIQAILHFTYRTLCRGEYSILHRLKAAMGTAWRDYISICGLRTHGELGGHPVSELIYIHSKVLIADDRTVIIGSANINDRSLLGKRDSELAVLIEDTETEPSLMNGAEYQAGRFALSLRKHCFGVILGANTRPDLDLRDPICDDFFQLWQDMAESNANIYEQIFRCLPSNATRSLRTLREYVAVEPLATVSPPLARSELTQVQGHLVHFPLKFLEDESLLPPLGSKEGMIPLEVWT

Phospholipase D1 = Phospholipase D1 (Homo sapiens, UniProt Q13393); experiment: PLD1 Cellular Concentration Response Study.; assay type: functional
Chain of Phospholipase D1 (Q13393 whole entry): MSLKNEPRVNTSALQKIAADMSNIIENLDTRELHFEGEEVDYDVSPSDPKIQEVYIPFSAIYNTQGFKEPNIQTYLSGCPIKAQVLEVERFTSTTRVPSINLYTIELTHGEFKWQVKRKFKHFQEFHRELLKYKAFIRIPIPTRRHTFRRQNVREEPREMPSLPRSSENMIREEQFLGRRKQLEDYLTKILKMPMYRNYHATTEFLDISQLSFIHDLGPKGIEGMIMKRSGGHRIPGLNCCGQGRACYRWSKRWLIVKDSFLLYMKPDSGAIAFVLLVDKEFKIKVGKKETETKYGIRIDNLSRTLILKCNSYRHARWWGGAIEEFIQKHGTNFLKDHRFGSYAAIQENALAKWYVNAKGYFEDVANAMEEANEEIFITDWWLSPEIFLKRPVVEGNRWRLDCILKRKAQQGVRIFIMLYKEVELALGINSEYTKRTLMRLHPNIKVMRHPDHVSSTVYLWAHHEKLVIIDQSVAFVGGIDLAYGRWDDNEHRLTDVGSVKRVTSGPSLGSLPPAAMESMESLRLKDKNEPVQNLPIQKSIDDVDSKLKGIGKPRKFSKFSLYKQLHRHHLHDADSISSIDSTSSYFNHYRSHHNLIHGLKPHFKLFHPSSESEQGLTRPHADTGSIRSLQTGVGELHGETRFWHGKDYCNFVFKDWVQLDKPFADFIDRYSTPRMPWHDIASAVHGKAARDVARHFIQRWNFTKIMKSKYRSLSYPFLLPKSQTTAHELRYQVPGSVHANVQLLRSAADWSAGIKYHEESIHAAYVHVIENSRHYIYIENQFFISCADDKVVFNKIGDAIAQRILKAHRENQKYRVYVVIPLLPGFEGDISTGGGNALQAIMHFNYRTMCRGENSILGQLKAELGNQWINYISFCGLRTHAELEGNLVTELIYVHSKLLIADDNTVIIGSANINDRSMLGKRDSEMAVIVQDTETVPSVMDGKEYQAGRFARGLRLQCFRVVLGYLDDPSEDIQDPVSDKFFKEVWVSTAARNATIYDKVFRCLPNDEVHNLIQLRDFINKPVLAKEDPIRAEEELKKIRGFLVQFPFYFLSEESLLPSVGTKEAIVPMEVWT

Structure (SMILES): O=C(Nc1nc2ccccc2[nH]1)Nc1ccccc1F
- IC50 [1]: 10.6 µM (active)
- IC50 [2]: > 67.5 µM (inactive)
- EC50 [3]: > 67.5 µM (inactive)
- EC50 (cells): > 67.5 µM (inactive)
- IC50 [4]: 14.5 µM (active)
- IC50 (Caspase-3): 18.5 µM (active)
- EC50 [5]: > 67.5 µM (inactive)
- IC50 [6]: 7.28 µM (active)

Structure (SMILES): O=c1cc(CN2CCc3ccccc32)nc2sccn12
- IC50 [7]: 22.9 µM (inactive)
- EC50 [8]: 18.2 µM (active)
- EC50 [9]: 10.9 µM (active)
- EC50 [10]: 0.231 µM (active)

Structure (SMILES): COc1cc(NC(=O)COC(=O)c2ccc([N+](=O)[O-])s2)cc(OC)c1OC
- EC50 [11]: 63.6 µM (inactive)
- IC50 [1]: 3.82 µM (active)
- AC50 (Caspase-8): 20.4 µM (active)
- AC50 (Caspase-9): 21.5 µM (active)
- IC50 [12]: 48.3 µM (inactive)
- IC50 [4]: 3.88 µM (active)
- AC50 (Caspase-6): 2.44 µM (active)
- IC50 (Caspase-3): 8.45 µM (active)
- IC50 [6]: 5.51 µM (active)

Structure (SMILES): COC(=O)Cc1cc(O)n(-c2nc3ccccc3[nH]2)n1
- AC50 [13]: 30.4 µM (active)
- IC50 (Nonstructural protein 1): 12.5 µM (active)

Structure (SMILES): O=C1C(=O)N(CCOc2ccccc2)c2ccc(OC(F)(F)F)cc21
- EC50 [14]: 51.6 µM (active)
- EC50 [15]: 0.55 µM
- EC50 [16]: 0.466 µM

Structure (SMILES): CC(C)NC(=O)NCC[C@@H]1CC[C@H](NS(=O)(=O)c2ccc(Oc3ccccc3)cc2)[C@@H](CO)O1
- AC50 [17]: 32.1 µM (active)

Structure (SMILES): COc1ccc(SCC(=O)c2cc(C)n(-c3ccc(OC(F)F)cc3)c2C)cc1
- EC50 [18]: 3.16 µM (active)

Structure (SMILES): O=C(NCCN1CCC2(CC1)C(=O)NCN2Cc1ccccn1)c1ccc2ccccc2c1
- IC50 (Phospholipase D2): 0.08 µM (active)
- IC50 (Phospholipase D1): 2.63 µM (active)
